Source: publication PMC8657435, “Adamantane-Substituted Purines and Their β-Cyclodextrin Complexes: Synthesis and Biological Activity” (International Journal of Molecular Sciences, 2021)
Several values for one entry are separate records, joined by “and”; a condition that tells them apart may be missing. Identical values can stand only once. Like-named read-outs stand apart in the source and are kept apart here.

Legend:
[1] = tested on: K-562; test: In vitro cytotoxicity / antiproliferative activity, resazurin viability assay, 72 h; assay type: cell-based, human
[2] = tested on: MCF-7; test: as above; assay type: cell-based, human
[3] = molecular target: T1, CDK2/cyclin E (Homo sapiens, UniProt P24941); test: CDK2/cyclin E kinase inhibition assay ([γ-33P]ATP, peptide substrate); assay type: biochemical
Procedure: CDK2/cyclin E activity was assayed as previously described. Briefly, the kinase was assayed with [γ-^33P]ATP and suitable peptide substrates in a reaction buffer (60 mM HEPES-NaOH, pH 7.5, 3 mM MgCl2, 3 mM MnCl2, 3 μM Na-orthovanadate, 1.2 mM DTT, 2.5 μg/50 μL PEG20.000). The reactions were stopped by adding 5 µL of 3% aq. H3PO4. Aliquots were spotted onto P-81 phosphocellulose, washed with 0.5% aq. H3PO4 and air-dried. Kinase inhibition was quantified using an FLA-7000 digital image analyser.

[4] = tested on: MCF-7; parameters: method as in Popowycz et al. [51]; conditions: single purine; ref Popowycz et al. [51]; cited from earlier work
[5] = tested on: K-562; parameters: method as in Popowycz et al. [51]; conditions: single purine; ref Popowycz et al. [51]; cited from earlier work
[6] = molecular target: T1, CDK2/cyclin E; conditions: Figure 1; cited from earlier work
[7] = tested on: CDK1; parameters: method as in PMID 24900429; conditions: no inhibition activity; read-out: IC50 towards CDK1; cited from earlier work
[8] = tested on: CDK2; conditions: no inhibition activity; read-out: IC50 towards CDK2; cited from earlier work
[9] = Homo sapiens, K562, single purine, 72 h, read-out: K-562 GI50, Purine
[10] = mixture purine·β-CD 1:1, 72 h, read-out: K-562 GI50, Purine·β-CD (1:1)
[11] = mixture purine·β-CD 1:10, 72 h, read-out: K-562 GI50, Purine·β-CD (1:10)
[12] = Homo sapiens, MCF7, single purine, 72 h, read-out: MCF-7 GI50, Purine
[13] = mixture purine·β-CD 1:1, 72 h, read-out: MCF-7 GI50, Purine·β-CD (1:1)
[14] = mixture purine·β-CD 1:10, 72 h, read-out: MCF-7 GI50, Purine·β-CD (1:10)
[15] = mixture purine·β-CD 1:1 molar ratio, read-out: CDK2/Cyclin E IC50, Purine·β-CD (1:1)
[16] = mixture purine·β-CD 1:10 molar ratio, read-out: CDK2/Cyclin E IC50, Purine·β-CD (1:10)
[17] = single purine, no β-CD, mean ± SD of duplicated experiments, read-out: CDK2/Cyclin E IC50, Purine
[18] = mixture purine·β-CD 1:1 molar ratio
[19] = mixture purine·β-CD 1:10 molar ratio
[20] = single purine, no β-CD, mean ± SD of duplicated experiments

In the case of CC(C)n1cnc2c(Nc3cccc(C(=O)C45CC6CC(CC(C6)C4)C5)c3)nc(NCCCO)nc21 [Compound 4a, (1-Adamantyl)[3-({2-[(3-hydroxypropyl)amino]-9-isopropyl-9H-purin-6-yl}amino)phenyl]methanone], the GI50 [1, 9] is reported as 6.16 µM, the GI50 [1, 10] is reported as 15 ± 0.16 µM and the GI50 [1, 11] is reported as > 40 µM. The GI50 [2, 12] was > 6.25 µM, the GI50 [2, 13] was 15.7 ± 0.9 µM and the GI50 [2, 14] was > 40 µM. The IC50 [3, 15] was 5.5 ± 1.3 µM, the IC50 [3, 16] was > 40 µM and the IC50 [3, 17] was 2.55 ± 0.08 µM.

In the case of CC[C@H](CO)Nc1nc(NCc2ccccc2)c2ncn(C(C)C)c2n1 [Compound 4l, roscovitine], the GI50 [4] is listed as 12.6 µM and the GI50 [5] is listed as 50.1 µM.

For CC(C)n1cnc2c(NCc3ccc(C(=O)CC45CC6CC(CC(C6)C4)C5)cc3)nc(NCCCO)nc21 [Compound 4j], the GI50 [1, 9] was > 6.25 µM, the GI50 [1, 10] was 17.7 ± 0.6 µM and the GI50 [1, 11] was > 40 µM. The GI50 [2, 12] was > 6.25 µM, the GI50 [2, 13] was 21.51 ± 0.04 µM and the GI50 [2, 14] was > 40 µM. The IC50 [3, 15] was 15.7 µM, the IC50 [3, 16] was 20.9 µM and the IC50 [3, 17] was 3.26 ± 0.01 µM. For the same molecule, the “Activity on CDK2/cyclin E, fold higher than meta-analogue 4i” value ([3]; single purine, para versus meta) was 4.3 fold.

For CC(C)n1cnc2c(Nc3ccc(CC45CC6CC(CC(C6)C4)C5)cc3)nc(NCCCO)nc21 [Compound 4f, 3-{[6-{[4-(1-Adamantylmethyl)phenyl]amino}-9-isopropyl-9H-purin-2-yl]amino}propan-1-ol], the GI50 [1, 9] was 10.4 ± 0.7 µM, the GI50 [1, 10] was 24 ± 3 µM and the GI50 [1, 11] was > 40 µM. The GI50 [2, 12] was > 12.5 µM, the GI50 [2, 13] was 32.9 ± 0.1 µM and the GI50 [2, 14] was > 40 µM. The “CDK2/Cyclin E IC50, Purine·β-CD (1:1)” value [3, 18] was “no activity”, the IC50 [3, 15] was > 40 µM and the “CDK2/Cyclin E IC50, Purine·β-CD (1:10)” value [3, 19] was “no activity”. The IC50 [3, 16] was > 40 µM, the “CDK2/Cyclin E IC50, Purine” value [3, 20] was “no activity” and the IC50 [3, 17] was > 12.5 µM.

For CC(C)n1cnc2c(NC34CC5CC(CC(C5)C3)C4)nc(NCCCO)nc21 [Compound 4m, 6-[(1-adamantyl)amino]-2-[(3-hydroxypropyl)amino]-9-(propan-2-yl)purine], the IC50 [6] is given as > 100 µM, the IC50 [7] is given as > 100 µM and the IC50 [8] is given as > 100 µM.

For CC(C)n1cnc2c(NCc3cccc(C(=O)CC45CC6CC(CC(C6)C4)C5)c3)nc(NCCCO)nc21 [Compound 4i], the GI50 [1, 9] was > 6.25 µM, the GI50 [1, 10] was 19.8 ± 0.5 µM and the GI50 [1, 11] was > 40 µM. The GI50 [2, 12] was > 6.25 µM, the GI50 [2, 13] was 30 ± 5 µM and the GI50 [2, 14] was > 40 µM. For the same molecule, the melting point was 64 to 69 °C, the IC50 [3, 15] was > 40 µM and the IC50 [3, 16] was 30.7 µM. For the same molecule, the IC50 [3, 17] was > 10 µM and 14 µM.

For CC(C)n1cnc2c(Nc3ccc(C(O)C45CC6CC(CC(C6)C4)C5)cc3)nc(NCCCO)nc21 (stereo not drawn) [Compound 4e, 3-{[6-({4-[1-Adamantyl(hydroxy)methyl]phenyl}amino)-9-isopropyl-9H-purin-2-yl]amino}propan-1-ol], the GI50 [1, 9] was 10.1 ± 0.8 µM, the GI50 [1, 10] was 18.7 ± 0.6 µM and the GI50 [1, 11] was > 40 µM. For the same molecule, the GI50 [2, 12] was 8.1 ± 0.7 µM, the GI50 [2, 13] was 17 ± 2 µM and the GI50 [2, 14] was > 40 µM. The “CDK2/Cyclin E IC50, Purine·β-CD (1:1)” value [3, 18] was “essentially consistent with their non-complexed forms”, the IC50 [3, 15] was 1.53 µM and the IC50 [3, 16] was 26.1 µM. It also gave an IC50 [3, 17] of 1.6 ± 0.7 µM.

In the case of CC(C)n1cnc2c(Nc3cccc(C(O)C45CC6CC(CC(C6)C4)C5)c3)nc(NCCCO)nc21 (stereo not drawn) [Compound 4b, 3-{[6-({3-[1-Adamantyl(hydroxy)methyl]phenyl}amino)-9-isopropyl-9H-purin-2-yl]amino}propan-1-ol], the GI50 [1, 9] is reported as > 6.25 µM, the GI50 [1, 10] is reported as 34.69 ± 0.14 µM and the GI50 [1, 11] is reported as > 40 µM. For the same molecule, the GI50 [2, 12] was > 6.25 µM, the GI50 [2, 13] was 32 ± 3 µM and the GI50 [2, 14] was > 40 µM. The melting point was 88 to 93 °C, the “CDK2/Cyclin E IC50, Purine·β-CD (1:1)” value [3, 18] was “essentially consistent with their non-complexed forms” and the IC50 [3, 15] was 0.16 µM. The IC50 [3, 16] was 0.3 ± 0.2 µM, the IC50 [3, 17] was 0.21 ± 0.02 µM and the “Activity on CDK2/cyclin E, fold higher than bohemine” value ([3]; single purine, versus bohemine (4k)) was 3.5 fold.

For CC(C)n1cnc2c(NC34CC5CC(CC(C5)C3)C4)nc(NCC(O)CO)nc21 (stereo not drawn) [Compound 4n], the IC50 [6] is listed as > 100 µM.

In the case of CC(C)n1cnc2c(Nc3cccc(CC45CC6CC(CC(C6)C4)C5)c3)nc(NCCCO)nc21 [Compound 4c, 3-{[6-{[3-(1-Adamantylmethyl)phenyl]amino}-9-isopropyl-9H-purin-2-yl]amino}propan-1-ol], the GI50 [1, 9] is reported as > 6.25 µM, the GI50 [1, 10] is reported as 28.7 ± 10.2 µM and the GI50 [1, 11] is reported as > 40 µM. The GI50 [2, 12] was > 6.25 µM, the GI50 [2, 13] was > 40 µM and the GI50 [2, 14] was > 40 µM. For the same molecule, the melting point was 88 to 93 °C, the IC50 [3, 15] was 1.85 µM and the IC50 [3, 16] was > 40 µM. The IC50 [3, 17] was > 10 µM and 12 µM.

For CC(C)n1cnc2c(Nc3cccc(C(O)CC45CC6CC(CC(C6)C4)C5)c3)nc(NCCCO)nc21 (stereo not drawn) [Compound 4g, 3-{[6-({3-[2-(1-Adamantyl)-1-hydroxyethyl]phenyl}amino)-9-isopropyl-9H-purin-2-yl]amino}propan-1-ol], the GI50 [1, 9] was > 6.25 µM, the GI50 [1, 10] was 33.6 ± 1.2 µM and the GI50 [1, 11] was > 40 µM. For the same molecule, the GI50 [2, 12] was > 6.25 µM, the GI50 [2, 13] was 17 ± 2 µM and the GI50 [2, 14] was > 40 µM. For the same molecule, the melting point was 87 to 91 °C, the “CDK2/Cyclin E IC50, Purine·β-CD (1:1)” value [3, 18] was “essentially consistent with their non-complexed forms” and the IC50 [3, 15] was 1.24 µM. For the same molecule, the IC50 [3, 16] was 7.15 µM and the IC50 [3, 17] was 0.92 ± 0.18 µM.

In the case of CC(C)n1cnc2c(Nc3ccc(C(=O)C45CC6CC(CC(C6)C4)C5)cc3)nc(NCCCO)nc21 [Compound 4d, (1-Adamantyl)[4-({2-[(3-hydroxypropyl)amino]-9-isopropyl-9H-purin-6-yl}amino)phenyl]methanone], the GI50 [1, 9] is reported as 5.45 µM, the GI50 [1, 10] is reported as 16.5 ± 0.7 µM and the GI50 [1, 11] is reported as > 40 µM. For the same molecule, the “Fold more potent at inhibiting cell proliferation on K-562 than bohemine” value ([1]; single purine) was 17.8 fold, the “Fold more potent at inhibiting cell proliferation on K-562 than roscovitine” value ([1]; single purine) was 9.2 fold and the GI50 [2, 12] was 5.72 µM. The GI50 [2, 13] was 13.8 ± 1.4 µM, the GI50 [2, 14] was > 40 µM and the “Efficacy on MCF-7, fold higher than bohemine” value ([2]; single purine) was 4.7 fold. The “Efficacy on MCF-7, fold higher than roscovitine” value ([2]; single purine) was 2.2 fold, the IC50 [3, 15] was 1.4 ± 0.5 µM and the IC50 [3, 16] was 7.57 µM. For the same molecule, the IC50 [3, 17] was 0.6 ± 0.2 µM and the IC50 ([3]; single purine, read-out: CDK2/cyclin E IC50) was 0.58 µM.

For CC(C)n1cnc2c(Nc3cccc(CCC45CC6CC(CC(C6)C4)C5)c3)nc(NCCCO)nc21 [Compound 4h, 3-{[6-({3-[2-(1-Adamantyl)ethyl]phenyl}amino)-9-isopropyl-9H-purin-2-yl]amino}propan-1-ol], the GI50 [1, 9] was > 12.5 µM, the GI50 [1, 10] was > 40 µM and the GI50 [1, 11] was > 40 µM. The GI50 [2, 12] was > 12.5 µM, the GI50 [2, 13] was > 40 µM and the GI50 [2, 14] was > 40 µM. For the same molecule, the melting point was 72 to 78 °C, the “CDK2/Cyclin E IC50, Purine·β-CD (1:1)” value [3, 18] was “no activity” and the IC50 [3, 15] was > 40 µM. For the same molecule, the “CDK2/Cyclin E IC50, Purine·β-CD (1:10)” value [3, 19] was “no activity”, the IC50 [3, 16] was > 40 µM and the “CDK2/Cyclin E IC50, Purine” value [3, 20] was “no activity”. The IC50 [3, 17] was > 12.5 µM.
